Reference: US10501460B2, “Heterocyclic compounds and uses thereof” (Plexxikon Inc., priority 2013, dated 2019)

Experiments:
MV-4-11 = test: Oncology cell growth assay MV-4-11 (CellTiter Glo, 72 hours); assay type: cell-based; conditions: Homo sapiens, MV4-11, 72 h; MV-4-11 cell growth inhibitory activity, 3d
Method in brief: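 Growth read by CellTiter Glo luminescence after 72 h compound exposure of MV-4-11 AML cells (MLL-AF4), using 8-point 1:3 series to 10 μM final in 0.2% DMSO. Data normalized to DMSO wells, four-parameter fit yields pIC50.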

bromodomain = test: Bromodomain cell assays of Example 40 (at least one of them); assay type: cell-based; conditions: in at least one of the bromodomain cell assays described in Example 40
Method in brief: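 Growth inhibition: 3000 MV-4-11, MOLM-13, MM.1S or neuroblastoma cells/well got an 8-point 1:3 series from 10 μM top (0.2% DMSO) for 72 h, then CellTiter-Glo luminescence. Myc reporter: MV-4-11 with E-box firefly luciferase, 24 h exposure, One-Glo luminescence plus CellTiter-Fluo cell count. pIC50 from four-parameter fit.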

Row | SMILES | IC50 (MV-4-11) [µM] | IC50 (bromodomain) [µM]
1 | Cc1noc(C)c1-c1cnc2[nH]cc(C(c3ccc(F)cc3)C3CC3)c2c1 (stereo not shown) [P-0064, 4-[3-[cyclopropyl-(4-fluorophenyl)methyl]-1H-pyrrolo[2,3-b]pyridin-5-yl]-3,5-dimethyl-isoxazole] | ≤ 1 | < 10
2 | Cc1noc(C)c1-c1cnc2ccn(S(=O)(=O)C3CCCCC3)c2c1 [P-0066, 4-(1-cyclohexylsulfonylpyrrolo [3,2-b]pyridin-6-yl)-3,5-dimethyl-isoxazole] | ≤ 1 | < 10
3 | COC(c1cn(S(=O)(=O)C2CCCCC2)c2cc(-c3c(C)noc3C)cnc12)C1CC1 (stereo not shown) [P-0071, 4-[1-cyclohexylsulfonyl-3-[cyclopropyl(methoxy)methyl]pyrrolo[3,2-b]pyridin-6-yl]-3,5-dimethyl-isoxazole] | 1 to 10 | < 10
4 | COC(c1c[nH]c2ncc(-c3c(C)noc3C)cc12)C1CCC(F)(F)CC1 (stereo not shown) [P-0073, 4-[3-[(4,4-difluorocyclohexyl)-methoxy-methyl]-1H-pyrrolo[2,3-b]pyridin-5-yl]-3,5-dimethyl-isoxazole] | ≤ 1 | < 10
5 | Cc1noc(C)c1-c1cnc2c(CC3CC3)cn(S(=O)(=O)C3CCCCC3)c2c1 [P-0075, 4-[1-cyclohexylsulfonyl-3-(cyclopropylmethyl)pyrrolo [3,2-b]pyridin-6-yl]-3,5-dimethyl-isoxazole] | 1 to 10 | < 10
6 | Cc1noc(C)c1-c1cnc2c(I)cn(S(=O)(=O)c3ccccc3)c2c1 [P-0076, 4-[1-(benzenesulfonyl)-3-iodo-pyrrolo[3,2-b]pyridin-6-yl]-3,5-dimethyl-isoxazole] | ≤ 1 | < 10
7 | CCS(=O)(=O)n1cc(C(OC)C2CCC(F)(F)CC2)c2cc(-c3c(C)noc3C)cnc21 (stereo not shown) [P-0078, 4-[3-[(4,4-difluorocyclohexyl)-methoxy-methyl]-1-ethylsulfonyl-pyrrolo[2,3-b]pyridin-5-yl]-3,5-dimethyl-isoxazole] | 1 to 10 | < 10
8 | Cc1noc(C)c1-c1cnc2[nH]cc(C(c3ccc(F)cc3)(C3CC3)C3CC3)c2c1 [P-0085, 4-[3-[dicyclopropyl-(4-fluorophenyl)methyl]-1H-pyrrolo[2,3-b]pyridin-5-yl]-3,5-dimethyl-isoxazole] | 1 to 10 | < 10
9 | COC(c1c[nH]c2ncc(-c3c(C)noc3C)cc12)C1CCS(=O)(=O)CC1 (stereo not shown) [P-0089, 4-[[5-(3,5-dimethylisoxazol-4-yl)-1H-pyrrolo[2,3-b]pyridin-3-yl]-methoxy-methyl]thiane 1,1-dioxide] | 1 to 10 | < 10
10 | Cc1noc(C)c1-c1cnc2c(c1)c(C(O)C1CCSCC1)cn2S(=O)(=O)c1ccccc1 (stereo not shown) [P-0090, [1-(benzenesulfonyl)-5-(3,5-dimethylisoxazol-4-yl)pyrrolo[2,3-b]pyridin-3-yl]-tetrahydrothiopyran-4-yl-methanol] | 1 to 10 | < 10
11 | Cc1noc(C)c1-c1cnc2[nH]cc(CC3CCS(=O)(=O)CC3)c2c1 [P-0098, 4-[[5-(3,5-dimethylisoxazol-4-yl)-1H-pyrrolo[2,3-b]pyridin-3-yl]methyl]thiane 1,1-dioxide] | 1 to 10 | < 10
12 | Cc1noc(C)c1-c1cnc2c(-c3cnc(C4CC4)nc3)cn(S(=O)(=O)C3CCCC3)c2c1 [P-0103, 4-[1-cyclopentylsulfonyl-3-(2-cyclopropylpyrimidin-5-yl)pyrrolo[3,2-b]pyridin-6-yl]-3,5-dimethyl-isoxazole] | 1 to 10 | < 10
13 | COc1ncc(-c2cn(S(=O)(=O)C3CCCC3)c3cc(-c4c(C)noc4C)cnc23)cn1 [P-0105, 4-[1-cyclopentylsulfonyl-3-(2-methoxypyrimidin-5-yl)pyrrolo[3,2-b]pyridin-6-yl]-3,5-dimethyl-isoxazole] | 1 to 10 | < 10
14 | Cc1noc(C)c1-c1cnc2c(c1)c(CC1CCN(C(=O)C(F)(F)F)CC1)cn2C [P-0106, 1-[4-[[5-(3,5-dimethylisoxazol-4-yl)-1-methyl-pyrrolo[2,3-b]pyridin-3-yl]methyl]-1-piperidyl]-2,2,2-trifluoro-ethanone] | ≤ 1 | < 10
15 | CCCS(=O)(=O)n1cc(-c2cnn(C)c2)c2ncc(-c3c(C)noc3C)cc21 [P-0111, 3,5-dimethyl-4-[3-(1-methylpyrazol-4-yl)-1-propylsulfonyl-pyrrolo [3,2-b]pyridin-6-yl] isoxazole] | ≤ 1 | < 10
16 | Cc1noc(C)c1-c1cnc2c(-c3cnn(C)c3)cn(S(=O)(=O)C3CCCC3)c2c1 [P-0112, 4-[1-cyclopentylsulfonyl-3-(1-methylpyrazol-4-yl)pyrrolo[3,2-b]pyridin-6-yl]-3,5-dimethyl-isoxazole] | ≤ 1 | < 10
17 | Cc1noc(C)c1-c1cnc2c(c1)c(CC1CCN(S(=O)(=O)c3ccccc3)CC1)cn2C [P-0113, 4-[3-[[1-(benzenesulfonyl)-4-piperidyl]methyl]-1-methyl-pyrrolo[2,3-b]pyridin-5-yl]-3,5-dimethyl-isoxazole] | 1 to 10 | < 10
18 | Cc1noc(C)c1-c1cnc2c(c1)c(CC1CCN(C(=O)c3ccccc3)CC1)cn2C [P-0115, [4-[[5-(3,5-dimethylisoxazol-4-yl)-1-methyl-pyrrolo[2,3-b]pyridin-3-yl]methyl]-1-piperidyl]-phenyl-methanone] | ≤ 1 | < 10
19 | CCNC(=O)N1CCC(Cc2cn(C)c3ncc(-c4c(C)noc4C)cc23)CC1 [P-0117, 4-[[5-(3,5-dimethylisoxazol-4-yl)-1-methyl-pyrrolo[2,3-b]pyridin-3-yl]methyl]-N-ethyl-piperidine-1-carboxamide] | ≤ 1 | < 10
20 | CCC(c1cn(C)c2ncc(-c3c(C)noc3C)cc12)C1CCC(F)(F)CC1 (stereo not shown) [P-0118, 4-[3-[1-(4,4-difluorocyclohexyl)propyl]-1-methyl-pyrrolo[2,3-b]pyridin-5-yl]-3,5-dimethyl-isoxazole] | ≤ 1 | < 10
21 | CC(=O)N1CCC(Cc2cn(C)c3ncc(-c4c(C)noc4C)cc23)CC1 [P-0120, 1-[4-[[5-(3,5-dimethylisoxazol-4-yl)-1-methyl-pyrrolo[2,3-b]pyridin-3-yl]methyl]-1-piperidyl]ethanone] | 1 to 10 | < 10

Continued, values first:

Row | IC50 (MV-4-11) [µM] | IC50 (bromodomain) [µM] | SMILES
22 | 1 to 10 | < 10 | Cc1noc(C)c1-c1cnc2c(-c3ccccc3)cn(S(=O)(=O)c3ccccc3)c2c1 [P-0077, 4-[1-(benzenesulfonyl)-3-phenyl-pyrrolo[3,2-b]pyridin-6-yl]-3,5-dimethyl-isoxazole]
23 | ≤ 1 | < 10 | Cc1noc(C)c1-c1cnc2c(-c3cccnc3)cn(S(=O)(=O)c3ccccc3)c2c1 [P-0084, 4-[1-(benzenesulfonyl)-3-(3-pyridyl)pyrrolo[3,2-b]pyridin-6-yl]-3,5-dimethyl-isoxazole]
24 | 1 to 10 | < 10 | COc1ncc(-c2cn(S(=O)(=O)c3ccccc3)c3cc(-c4c(C)noc4C)cnc23)cn1 [P-0104, 4-[1-(benzenesulfonyl)-3-(2-methoxypyrimidin-5-yl)pyrrolo[3,2-b]pyridin-6-yl]-3,5-dimethyl-isoxazole]
25 | ≤ 1 | < 10 | Cc1noc(C)c1-c1cnc2c(-c3cnn(C)c3)cn(S(=O)(=O)c3ccccc3)c2c1 [P-0110, 4-[1-(benzenesulfonyl)-3-(1-methylpyrazol-4-yl)pyrrolo[3,2-b]pyridin-6-yl]-3,5-dimethyl-isoxazole]
26 | ≤ 1 | < 10 | Cc1noc(C)c1-c1cnc2c(-c3cnn(C)c3)cn(S(=O)(=O)c3ccccc3F)c2c1 [P-0121, 4-[1-(2-fluorophenyl)sulfonyl-3-(1-methylpyrazol-4-yl)pyrrolo[3,2-b]pyridin-6-yl]-3,5-dimethyl-isoxazole]
27 | ≤ 1 | < 10 | Cc1noc(C)c1-c1cnc2c(-c3cnn(C)c3)cn(S(=O)(=O)c3cccc(F)c3)c2c1 [P-0122, 4-[1-(3-fluorophenyl)sulfonyl-3-(1-methylpyrazol-4-yl)pyrrolo[3,2-b]pyridin-6-yl]-3,5-dimethyl-isoxazole]
28 | ≤ 1 | < 10 | Cc1noc(C)c1-c1cnc2c(-c3cnn(C)c3)cn(S(=O)(=O)c3ccc(F)cc3)c2c1 [P-0123, 4-[1-(4-fluorophenyl)sulfonyl-3-(1-methylpyrazol-4-yl)pyrrolo[3,2-b]pyridin-6-yl]-3,5-dimethyl-isoxazole]
29 | ≤ 1 | < 10 | CCn1cc(-c2cn(S(=O)(=O)c3ccccc3F)c3cc(-c4c(C)noc4C)cnc23)cn1 [P-0125, 4-[3-(1-ethylpyrazol-4-yl)-1-(2-fluorophenyl)sulfonyl-pyrrolo[3,2-b]pyridin-6-yl]-3,5-dimethyl-isoxazole]
30 | ≤ 1 | < 10 | C=CCn1cc(-c2cn(S(=O)(=O)c3ccccc3)c3cc(-c4c(C)noc4C)cnc23)cn1 [P-0126, 4-[3-(1-allylpyrazol-4-yl)-1-(benzenesulfonyl)pyrrolo [3,2-b]pyridin-6-yl]-3,5-dimethyl-isoxazole]
31 | ≤ 1 | < 10 | C=CCn1cc(-c2cn(S(=O)(=O)c3ccccc3F)c3cc(-c4c(C)noc4C)cnc23)cn1 [P-0127, 4-[3-(1-allylpyrazol-4-yl)-1-(2-fluorophenyl)sulfonyl-pyrrolo[3,2-b]pyridin-6-yl]-3,5-dimethyl-isoxazole]
32 | ≤ 1 | < 10 | C=CCn1cc(-c2cn(S(=O)(=O)C3CCCC3)c3cc(-c4c(C)noc4C)cnc23)cn1 [P-0128, 4-[3-(1-allylpyrazol-4-yl)-1-cyclopentylsulfonyl-pyrrolo [3,2-b]pyridin-6-yl]-3,5-dimethyl-isoxazole]
